These are literature values, as cited in patent US20150272930A1, “Fixed Dosage Formulations of Angiotensin Converting Enzyme (ACE) inhibitor and the Diuretic Chlorthalidone” (AILEX Pharmaceuticals PVT. LTD., priority 2014, published 2015).

SMILES strings stand for the structures.

The conditions of this data set: compared with HCTZ.

As to `NS(=O)(=O)c1cc(C2(O)NC(=O)c3ccccc32)ccc1Cl` (centres unmarked) [Chlorthalidone, 2-chloro-5-(1-hydroxy-3-oxo-1,2-dihydroisoindol-1-yl)-benzenesulfonamide], the duration of action entry is listed as “longer duration of action”. Besides, the antihypertensive effectiveness entry (over 24 hours) is “more effective antihypertensive agent”.
